Values quoted from earlier work, collected in patent US6372198B1, “Dentifrice for the mineralization and remineralization of teeth” (priority 2000, dated 2002).

Test system: periodontal disease
Settings: oral administration (pills, capsules, powders); certain clinical studies

COC1=C(OC)C(=O)C(C/C=C(\C)CC/C=C(\C)CC/C=C(\C)CC/C=C(\C)CC/C=C(\C)CC/C=C(\C)CC/C=C(\C)CC/C=C(\C)CC/C=C(\C)CCC=C(C)C)=C(C)C1=O [coenzyme Q10]
symptoms of periodontal disease, including inflammation, swelling, and bleeding of the gum tissues: alleviated the symptoms of periodontal disease
